{"source": "patent US20090215669A1", "about": "“COMPOSITIONS AND METHODS FOR TREATMENT OF DIABETES” (DIA-B TECH LIMITED, priority 2005, published 2009)", "key": {"[1]": {"tested_on": "C2C12 mouse myotube cells", "assay": "Microphysiometry (extracellular acidification rate) in C2C12 cells", "type": "cell-based", "experimental": "C2C12 mouse myotube cells were seeded onto supports and differentiated. The cells were then placed in a Cytosensor (Molecular Devices) in non-buffered pH sensitive RPMI 1640 media. Once the cells were equilibrated at 37° C. with RPMI 1640 media (zero control), ISF402, insulin or ZnCl2 at increasing concentrations were added for a duration of 20 minutes, for each treatment. The Cytosensor measured the changed in pH as a response of cells to the treatment.\nThe activity of the combination of insulin and ISF402 in insulin sensitisation was explored in C2C12 muscle cells using microphysiometry, a technique that measures extracellular acidification as an indicator of cell metabolism. An ISF402 concentration of 0.1 μM was used to test for sensitisation of insulin responsiveness as this concentration produces a sub-maximal (˜20%) response in C2C12 cells. In the presence of 0.1 μM ISF402, the cellular response to insulin was increased as shown by increasing extracellular acidification rate (ECAR) with increasing concentrations of insulin, particularly at low insulin concentrations (FIG. 3)."}, "female Zucker fa/fa rats [2]": {"tested_on": "female Zucker fa/fa rats", "assay": "Oral ISF402 followed by intraperitoneal insulin tolerance test (IPITT) in female Zucker fa/fa rats", "type": "in vivo, rat", "experimental": "Female Zucker fa/fa rats were purchased from Monash Animal Services (Monash University, Clayton, Australia). Rats were housed in the Biochemistry and Molecular Biology Animal House (Monash University, Victoria, Australia) and allowed to acclimatize for 7 days in an environmentally controlled room at 22° C. Rats were fed normal chow and water ad libitum. All experiments were performed according to Monash University Animal Care and Ethics Committee guidelines and approved by the Monash University Animal ethics committee. Rats of 16-18 weeks of age were fasted overnight with free access to water then anaesthetised with pentobarbitone (Nembutal, Phone Merieux, QLD, Australia) administered intraperitoneally (IP) at 35 mg/kg body weight. Blood glucose was monitored using Medisense glucometers (Abbott Laboratories, Abbott Park, Ill.) for one hour prior to administration of test substances. ISF402 was administered at 3 mg/kg by IP with 2 U/kg of bovine insulin (n=6) and controls were injected IP with insulin alone (n=8). Two experiments were performed where ISF402 was given orally. In the first experiment, controls were given saline orally by gavage (n=5) and the test group were given ISF402 orally at 15 mg/kg (n=5). After 15 minutes, insulin (2 U/kg) was injected IP. The procedure was repeated three days later with the control rats once again given saline and the treated rats given 30 mg/kg ISF402. A second experiment was performed on a separate group of rats where controls were given saline orally as before (n=5) and treated rats were given ISF402 orally at 30 mg/kg (n=5), followed 15 minutes later by IP injection of 2 U/kg insulin. For both experiments, after administration of peptide blood was collected from the tail vein and glucose measured immediately. Serum samples were also collected for later measurement of C-peptide and insulin using Linco Rat C-peptide and Insulin RIA kits according to the manufacturer's instructions (Linco Research Inc, St Charles, Mo.)."}, "[3]": {"assay": "Solubility of ISF402 at various pH and temperatures", "type": "physicochemical", "conditions": "for solubility at 24 h: 25 mM ammonium bicarbonate buffer", "experimental": "Solid ISF402 was added to 50 μL aliquots of 25 mM ammonium bicarbonate buffer until no more solid dissolved. The total weight of the peptide added to each tube was noted and the pH of each solution was adjusted to approximately pH 8 by the addition of 1 M NaOH. Samples were incubated with constant shaking at either room temperature (23-25° C.) or 37° C. for 24 hours then centrifuged at 16000×g for 15 minutes. 2 μL aliquots of each supernatant were diluted with milliQ-H2O to an estimated concentration of 1 mg/mL. Samples were stored at −20° C. for later analysis by HPLC using UV detection (214 nm) to determine the exact concentration of ISF402. The pH of the remaining supernatant was measured. The pH was lowered by the addition of 2 μL of 5M HCl and tube contents were mixed and incubated under the two temperature conditions. The cycle of pH lowering, incubation and sampling was repeated until a pH of between 2 and 3 was achieved."}, "female Zucker fa/fa rats [4]": {"tested_on": "female Zucker fa/fa rats", "assay": "Intravenous injection of female Zucker fa/fa rats: blood glucose, serum insulin, C-peptide, triglyceride", "type": "in vivo, rat", "conditions": "for Change in Serum Triglyceride levels compared to the 0 time point: ISF402 alone 4.5 mg/kg, insulin, insulin + ISF402 1.5 mg/kg, mean ± SEM (n = 5); for maximum reduction in blood glucose: 45 minutes after administration"}, "insulin multimer": {"target": "T1, insulin multimer (Bos taurus, UniProt P01317)", "T1 construct": "mixing insulin with ISF402 and separating molecular complexes by gel filtration chromatography", "T1 sequence (P01317 25-54 limits assumed)": "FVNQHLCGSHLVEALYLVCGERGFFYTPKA", "T1 sequence (P01317 85-105 limits assumed)": "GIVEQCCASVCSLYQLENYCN", "assay": "Gel filtration chromatography of insulin mixed with ISF402", "type": "biochemical", "source_text": "The effect of ISF402 on the multimerisation of insulin was examined in vitro by mixing insulin with ISF402 and separating molecular complexes by gel filtration chromatography, which separates on the basis of size (FIG. 7)."}, "male Zucker fa/fa rats": {"tested_on": "male Zucker fa/fa rats", "assay": "Intravenous injection of male Zucker fa/fa rats: blood glucose, serum insulin, C-peptide", "type": "in vivo, rat", "conditions": "1 U/kg of bovine insulin iv", "experimental": "The Monash University Animal Ethics Committee approved all procedures performed on experimental animals. Zucker rats were purchased from the Monash University Central Animal Facility. Insulin and ISF401 were injected through the femoral vein while the rat was under anaesthesia (Pentobarbitone) and rats were humanely killed while still unconscious at the end of the procedure. The insulin concentration used for all in vivo experiments was 1 unit per kg of body weight. Blood was collected from the tail vein and glucose concentrations were measured using a Medisense glucometer. Insulin and C-peptide concentrations were measured in serum samples using a Linco Rat Insulin RIA kit according to the manufacturers instructions. Group sizes were between 5 and 8 rats per treatment.\nTo investigate sex differences in the insulin sensitizing effect of ISF402, age-matched male Zucker fa/fa rats were injected intravenously with ISF402 (1.5 mg/kg) and insulin as described above for female rats. […] In comparison, co-injection of ISF402 with the insulin led to a decrease in blood glucose 20 minutes after injection which remained low for a further 25 minutes (FIG. 13A). The greatest reduction in blood glucose was 0.98±0.31 mmol/L and was achieved 30 minutes after injection. […]"}, "female Zucker fa/fa rats [5]": {"tested_on": "female Zucker fa/fa rats", "assay": "Intraperitoneal injection of insulin with ISF402 in female Zucker fa/fa rats", "type": "in vivo, rat", "conditions": "IP, 2 U/kg bovine insulin", "experimental": "Female Zucker fa/fa rats were purchased from Monash Animal Services (Monash University, Clayton, Australia). Rats were housed in the Biochemistry and Molecular Biology Animal House (Monash University, Victoria, Australia) and allowed to acclimatize for 7 days in an environmentally controlled room at 22° C. Rats were fed normal chow and water ad libitum. All experiments were performed according to Monash University Animal Care and Ethics Committee guidelines and approved by the Monash University Animal ethics committee.\nRats of 16-18 weeks of age were fasted overnight with free access to water then anaesthetised with pentobarbitone (Nembutal, Phone Merieux, QLD, Australia) administered intraperitoneally (IP) at 35 mg/kg body weight. Blood glucose was monitored using Medisense glucometers (Abbott Laboratories, Abbott Park, Ill.) for one hour prior to administration of test substances. ISF402 was administered at 3 mg/kg by IP with 2 U/kg of bovine insulin (n=6) and controls were injected IP with insulin alone (n=8). Two experiments were performed where ISF402 was given orally. In the first experiment, controls were given saline orally by gavage (n=5) and the test group were given ISF402 orally at 15 mg/kg (n=5). After 15 minutes, insulin (2 U/kg) was injected IP. […] For both experiments, after administration of peptide blood was collected from the tail vein and glucose measured immediately. […]"}, "[6]": {"conditions": "oral ISF402 followed by IP insulin injection"}, "[7]": {"conditions": "iv, ISF402 4.5 mg/kg without insulin"}}, "note": "Where two headings read alike, the source gives them in different places. Marks after values point to notes of the source that are not given here. Peptide text beside a SMILES is read from it.", "data": [{"molecule": "CC(C)[C@H](N)C(=O)N[C@@H](Cc1c[nH]cn1)C(=O)N[C@H](C(=O)N[C@@H](CC(=O)O)C(N)=O)[C@@H](C)O", "note": "[ISF402, Val-His-Thr-Asp-NH2] (H-VHTD-NH2)", "values": [{"measurement": "response in C2C12 cells (sub-maximal, extracellular acidification)", "setting": "[1]; 0.1 μM ISF402", "result": "~20", "unit": "%"}, {"measurement": "cellular response to insulin (extracellular acidification rate, ECAR)", "setting": "[1]; in the presence of 0.1 μM ISF402, increasing insulin concentrations", "result": "increased"}, {"measurement": "blood glucose in IPITT compared to control", "setting": "female Zucker fa/fa rats [2]; ISF402 15 mg/kg oral, insulin 2 U/kg IP 15 minutes later", "result": "did not reach statistical significance"}, {"measurement": "blood glucose in IPITT compared to the insulin-injected control group", "setting": "female Zucker fa/fa rats [2]; ISF402 30 mg/kg oral to the same rats three days after 15 mg/kg", "result": "significant reduction in blood glucose"}, {"measurement": "time of greatest decrease in blood glucose after administration", "setting": "female Zucker fa/fa rats [2]; oral 30 mg/kg ISF402, IPITT", "result": 2, "unit": "h"}, {"measurement": "C-peptide concentrations", "setting": "female Zucker fa/fa rats [2]; [6]", "result": "did not change"}, {"measurement": "circulating insulin concentrations", "setting": "female Zucker fa/fa rats [2]; [6]", "result": "did not change"}, {"measurement": "blood glucose in IPITT compared to control", "setting": "female Zucker fa/fa rats [2]; single dose of 30 mg/kg ISF402 oral by gavage", "result": "significant decrease in blood glucose"}, {"measurement": "solubility at 24 h", "setting": "[3]; 37° C., pH 6, read-out: minimum solubility", "result": 179, "unit": "mg/mL"}, {"measurement": "solubility at 24 h", "setting": "[3]; both at room temperature and 37° C., below pH 4.6 and above pH 6.9, read-out: solubility", "result": "300 to 450", "unit": "mg/mL"}, {"measurement": "solubility at 24 h", "setting": "[3]; room temperature, pH 6.3, read-out: lowest solubility", "result": 165, "unit": "mg/mL"}, {"measurement": "pH of minimum solubility", "setting": "[3]; both temperatures", "result": "5.7-6.3"}, {"measurement": "Change in Serum Triglyceride levels compared to the 0 time point", "setting": "female Zucker fa/fa rats [4]; Time 0 minutes", "result": 0, "unit": "mg/dL"}, {"measurement": "Change in Serum Triglyceride levels compared to the 0 time point", "setting": "female Zucker fa/fa rats [4]; Time 10 minutes", "result": "+11.3 ± 5.4 mg/dl"}, {"measurement": "Change in Serum Triglyceride levels compared to the 0 time point", "setting": "female Zucker fa/fa rats [4]; Time 45 minutes", "result": "−16 ± 7.2^a mg/dl"}, {"measurement": "Change in Serum Triglyceride levels compared to the 0 time point", "setting": "female Zucker fa/fa rats [4]; Time 60 minutes", "result": "+44.9 ± 42.7 mg/dl"}, {"measurement": "maximum reduction in blood glucose", "setting": "female Zucker fa/fa rats [4]; iv, ISF402 4.5 mg/kg without exogenous insulin", "result": "1.02 ± 0.27", "unit": "mmol/L"}, {"measurement": "circulating insulin", "setting": "female Zucker fa/fa rats [4]; [7]", "result": "no observed increase in circulating insulin"}, {"measurement": "serum C-peptide concentrations", "setting": "female Zucker fa/fa rats [4]; [7]", "result": "reduced"}, {"measurement": "optimum ISF402 dose", "setting": "female Zucker fa/fa rats [4]; iv, co-injected with insulin 1 U/kg", "result": 1.5, "unit": "mg/kg"}, {"measurement": "optimal intravenous dose of ISF402", "setting": "female Zucker fa/fa rats [4]; iv, without exogenous insulin", "result": 4.5, "unit": "mg/kg"}, {"measurement": "glucose lowering response across the range of ISF402 doses", "setting": "female Zucker fa/fa rats [4]; iv, 0.5-4.5 mg/kg with insulin, 3-10 mg/kg alone, AUC over 60 minutes (FIG. 2A)", "result": "dose dependent and bell shaped"}, {"measurement": "magnitude of the maximal reduction in blood glucose compared to controls", "setting": "female Zucker fa/fa rats [4]; iv, ISF402 4.5 mg/kg vs saline, ISF402 1.5 mg/kg with insulin vs insulin alone", "result": 0.95, "unit": "mmol/L"}, {"measurement": "effect on the size of the insulin multimer", "setting": "insulin multimer", "result": "reduces the size of the insulin multimer"}, {"measurement": "elution volume of insulin when mixed with ISF402", "setting": "insulin multimer; insulin without pre-mixing eluted at 14-15 mL", "result": "16 to 17", "unit": "mL"}]}, {"molecule": "Insulin: Insulin (Bovine pancreas) containing 0.6% zinc, purchased from Sigma", "values": [{"measurement": "blood glucose response to insulin alone", "setting": "male Zucker fa/fa rats", "result": "no decrease at all"}, {"measurement": "Change in Serum Triglyceride levels compared to the 0 time point", "setting": "female Zucker fa/fa rats [4]; Time 0 minutes", "result": 0, "unit": "mg/dL"}, {"measurement": "Change in Serum Triglyceride levels compared to the 0 time point", "setting": "female Zucker fa/fa rats [4]; Time 10 minutes", "result": "+39.6 ± 15.1 mg/dl"}, {"measurement": "Change in Serum Triglyceride levels compared to the 0 time point", "setting": "female Zucker fa/fa rats [4]; Time 45 minutes", "result": "+21.1 ± 23.9 mg/dl"}, {"measurement": "Change in Serum Triglyceride levels compared to the 0 time point", "setting": "female Zucker fa/fa rats [4]; Time 60 minutes", "result": "+33.3 ± 19.8 mg/dl"}, {"measurement": "blood glucose response to insulin alone", "setting": "female Zucker fa/fa rats [4]; female rats, 1 U/kg of bovine insulin iv", "result": "small decrease in blood glucose"}, {"measurement": "maximum reduction in blood glucose", "setting": "female Zucker fa/fa rats [4]; iv, insulin 1 U/kg + ISF402 1.5 mg/kg, or insulin alone at the same time point", "result": "0.68 ± 0.22", "unit": "mmol/L"}, {"measurement": "blood glucose after insulin alone", "setting": "female Zucker fa/fa rats [5]", "result": "only a small reduction in blood glucose"}]}]}
